Structures can show the parent of a compound that is named as a salt. Where two headings read alike, the source gives them in different places.
How the values were obtained:
Adrenergic β2 = molecular target: T1, Adrenergic β2 (Homo sapiens, UniProt P07550); experiment: Alternative Adrenergic β2 Mediated cAMP Production in H292 cells (AlphaScreen cAMP detection); type: cell-based; conditions: for EC50: cAMP, test compounds incubated 60 minutes, 300 μM rolipram, read-out: β2 pEC50 (converted); for β2 Int Act: fraction relative to the maximum activity determined for formoterol, 60 minutes incubation
T1 construct: endogenous in cells; host or cells: H292 cells
Procedure: H292 cells were grown in 225 cm2 flasks incubator at 37° C., 5% CO2 in RPMI medium containing, 10% (v/v) FBS (foetal bovine serum) and 2 mM L-glutamine.
Adherent H292 cells were removed from tissue culture flasks by treatment with Accutase™ cell detachment solution for 15 minutes. Flasks were incubated for 15 minutes in a humidified incubator at 37° C., 5% CO2. Detached cells were re-suspended in RPMI media (containing 10% (v/v) FBS and 2 mM L-glutamine) at 0.05×10^6 cells per mL. 5000 cells in 100 μL were added to each well of a tissue-culture-treated 96-well plate and the cells incubated overnight in a humidified incubator at 37° C., 5% CO2. The culture media was removed and cells were washed twice with 100 μL assay buffer and replaced with 50 μL assay buffer (HBSS solution containing 10 mM HEPES pH7.4 and 5 mM glucose). […] Cells were incubated with rolipram for 10 minutes after which time test compounds were added and the cells were incubated for 60 minutes at room temperature. […] The reaction was stopped by removing supernatants, washing once with 100 μL assay buffer and replacing with 50 μL lysis buffer. The cell monolayer was frozen at −80° C. for 30 minutes (or overnight).
The concentration of cAMP (cyclic adenosine monophosphate) in the cell lysate was determined using AlphaScreen™ methodology. The frozen cell plate was thawed for 20 minutes on a plate shaker then 10 μL of the cell lysate was transferred to a 96-well white plate. 40 μL of mixed AlphaScreen™ detection beads pre-incubated with biotinylated cAMP, was added to each well and the plate incubated at room temperature for 10 hours in the dark. The AlphaScreen™ signal was measured using an EnVision spectrophotometer (Perkin-Elmer Inc.) with the recommended manufacturer's settings. cAMP concentrations were determined by reference to a calibration curve determined in the same experiment using standard cAMP concentrations. Concentration response curves for agonists were constructed and data was fitted to a four parameter logistic equation to determine both the pEC50 and Intrinsic Activity.

[1] = molecular target: T2, recombinant human adrenergic beta 1 receptors (Homo sapiens, UniProt P08588); experiment: Adrenergic β1 selectivity assay, inhibition of [125I]-Iodocyanopindolol binding
T2 construct: purchased Euroscreen
Procedure: (§1) Membranes containing recombinant human adrenergic beta 1 receptors were obtained from Euroscreen. These were diluted in Assay Buffer (50 mM HEPES, 1 mM EDTA, 120 mM NaCl, 0.1% gelatin, pH 7.4) to provide a final concentration of membranes that gave a clear window between maximum and minimum specific binding.
Assays were performed in U-bottomed 96-well polypropylene plates. […] Membranes were then added to achieve a final volume of 100 μL. The plates were incubated for 2 hours at room temperature and then filtered onto PEI coated GF/B filter plates, pre-soaked for 1 hour in Assay Buffer, using a 96-well plate Tomtec cell harvester. Five washes with 250 μL wash buffer (50 mM HEPES, 1 mM EDTA, 120 mM NaCl, pH 7.4) were performed at 4° C. to remove unbound radioactivity. The plates were dried then sealed from underneath using Packard plate sealers and MicroScint-O (50 μL) was added to each well. The plates were sealed (TopSeal A) and filter-bound radioactivity was measured with a scintillation counter (TopCount, Packard BioScience) using a 3-minute counting protocol.
(§2) Total specific binding (B0) was determined by subtracting the mean NSB from the mean maximum binding. NSB values were also subtracted from values from all other wells.

[2] = molecular target: T3, recombinant human α1D receptor (Homo sapiens, UniProt P25100); experiment: Adrenergic α1D selectivity assay, inhibition of [3H]-prazosin binding; conditions: HEK293 membranes, [3H]-prazosin 0.3 nM; read-out: α1 bind pIC50 (converted)
T3 construct: expressed in transfected cells; host or cells: HEK293
T3 sequence (P25100 1-572): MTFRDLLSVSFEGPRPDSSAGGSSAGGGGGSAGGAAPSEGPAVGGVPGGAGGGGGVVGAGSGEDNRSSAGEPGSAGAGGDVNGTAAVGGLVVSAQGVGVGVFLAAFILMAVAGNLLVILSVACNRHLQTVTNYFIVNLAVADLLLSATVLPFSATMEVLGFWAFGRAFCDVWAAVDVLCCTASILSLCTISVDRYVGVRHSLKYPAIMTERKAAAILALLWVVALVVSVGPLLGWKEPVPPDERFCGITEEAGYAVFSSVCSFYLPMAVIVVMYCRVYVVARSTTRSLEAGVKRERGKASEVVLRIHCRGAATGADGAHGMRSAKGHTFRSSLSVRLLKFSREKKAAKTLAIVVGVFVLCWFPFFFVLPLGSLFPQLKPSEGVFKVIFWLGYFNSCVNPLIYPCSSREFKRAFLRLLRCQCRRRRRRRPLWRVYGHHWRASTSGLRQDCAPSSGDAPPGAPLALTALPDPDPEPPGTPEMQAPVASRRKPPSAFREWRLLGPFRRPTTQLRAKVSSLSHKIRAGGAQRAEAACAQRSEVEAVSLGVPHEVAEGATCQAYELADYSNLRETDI
Procedure: Membranes were prepared from human embryonic kidney 293 (HEK293) cells expressing recombinant human α1D receptor. These were diluted in Assay Buffer (50 mM HEPES, 1 mM EDTA, 0.1% gelatin, pH 7.4) to provide a final concentration of membranes that gave a clear window between maximum and minimum specific binding.
Assays were performed in U-bottomed 96-well polypropylene plates. 10 μL [^3H]-prazosin (0.3 nM final concentration) and 10 μL of test compound (10× final concentration) were added to each test well. For each assay plate 8 replicates were obtained for [^3H]-prazosin binding in the presence of 10 μL vehicle (10% (v/v) DMSO in Assay Buffer; defining maximum binding) or 10 μL BMY7378 (10 μM final concentration; defining non-specific binding (NSB)). Membranes were then added to achieve a final volume of 100 μL. The plates were incubated for 2 hours at room temperature and then filtered onto PEI coated GF/B filter plates, pre-soaked for 1 hour in Assay Buffer, using a 96-well plate Tomtec cell harvester. Five washes with 250 μL wash buffer (50 mM HEPES, 1 mM EDTA, pH 7.4) were performed at 4° C. to remove unbound radioactivity. The plates were dried then sealed from underneath using Packard plate sealers and MicroScint-O (50 μL) was added to each well. The plates were sealed (TopSeal A) and filter-bound radioactivity was measured with a scintillation counter (TopCount, Packard BioScience) using a 3-minute counting protocol.
as §2

[3] = molecular target: T4, recombinant human Dopamine Subtype D2s receptors (Homo sapiens, UniProt P14416); experiment: Dopamine D2 selectivity assay, inhibition of [3H]-spiperone binding; conditions: membranes, [3H]-spiperone 0.16 nM; read-out: D2 bind pIC50 (converted)
T4 construct: purchased Perkin Elmer
Procedure: as §1, with “human Dopamine Subtype D2s” for “human adrenergic beta 1”, “from Perkin Elmer.” for “from Euroscreen.”, “([…]” for “(50 mM”
Assays were performed in U-bottomed 96-well polypropylene plates. […] For each assay plate 8 replicates were obtained for [^3H]-spiperone binding in the presence of 30 μL vehicle (10% (v/v) DMSO in Assay Buffer; defining maximum binding) or 30 μL Haloperidol (10 μM final concentration; defining non-specific binding (NSB)). Membranes were then added to achieve a final volume of 300 μL. The plates were incubated for 2 hours at room temperature and then filtered onto PEI coated GF/B filter plates, pre-soaked for 1 hour in Assay Buffer, using a 96-well plate Tomtec cell harvester. Five washes with 250 μL wash buffer (50 mM HEPES, 1 mM EDTA, 120 mM NaCl, pH 7.4) were performed at 4° C. to remove unbound radioactivity. The plates were dried then sealed from underneath using Packard plate sealers and MicroScint-O (50 μL) was added to each well. The plates were sealed (TopSeal A) and filter-bound radioactivity was measured with a scintillation counter (TopCount, Packard BioScience) using a 3-minute counting protocol. Total specific binding (B0) was determined by subtracting the mean NSB from the mean maximum binding. NSB values were also subtracted from values from all other wells.

[4] = membranes, [125I]-Iodocyanopindolol, read-out: β1 bind pIC50 (converted)

T2 sequence (P08588 whole entry): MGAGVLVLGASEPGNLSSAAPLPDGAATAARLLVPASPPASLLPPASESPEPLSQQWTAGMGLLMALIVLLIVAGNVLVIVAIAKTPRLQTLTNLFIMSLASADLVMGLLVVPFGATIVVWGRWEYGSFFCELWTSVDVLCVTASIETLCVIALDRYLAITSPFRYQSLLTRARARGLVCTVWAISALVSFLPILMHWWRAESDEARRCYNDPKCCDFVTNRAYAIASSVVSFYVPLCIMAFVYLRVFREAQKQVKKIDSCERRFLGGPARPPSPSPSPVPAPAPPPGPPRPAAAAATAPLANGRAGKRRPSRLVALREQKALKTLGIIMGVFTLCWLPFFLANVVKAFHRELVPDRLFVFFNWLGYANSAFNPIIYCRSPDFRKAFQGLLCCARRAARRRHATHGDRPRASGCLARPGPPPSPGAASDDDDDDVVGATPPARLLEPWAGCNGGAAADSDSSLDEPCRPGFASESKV
T4 sequence (P14416 1-414 isoform P14416-2): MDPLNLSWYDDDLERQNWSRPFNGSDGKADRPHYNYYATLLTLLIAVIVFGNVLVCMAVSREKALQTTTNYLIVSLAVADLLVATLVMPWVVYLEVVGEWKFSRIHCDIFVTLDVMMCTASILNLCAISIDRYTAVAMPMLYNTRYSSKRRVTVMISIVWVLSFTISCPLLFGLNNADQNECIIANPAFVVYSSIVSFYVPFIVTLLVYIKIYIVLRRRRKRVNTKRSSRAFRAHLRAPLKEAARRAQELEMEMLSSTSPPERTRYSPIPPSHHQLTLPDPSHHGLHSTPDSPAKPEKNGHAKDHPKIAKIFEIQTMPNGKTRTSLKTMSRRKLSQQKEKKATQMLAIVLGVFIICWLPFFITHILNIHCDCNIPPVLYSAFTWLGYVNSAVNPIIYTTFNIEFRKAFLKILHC
T1 sequence (P07550 whole entry): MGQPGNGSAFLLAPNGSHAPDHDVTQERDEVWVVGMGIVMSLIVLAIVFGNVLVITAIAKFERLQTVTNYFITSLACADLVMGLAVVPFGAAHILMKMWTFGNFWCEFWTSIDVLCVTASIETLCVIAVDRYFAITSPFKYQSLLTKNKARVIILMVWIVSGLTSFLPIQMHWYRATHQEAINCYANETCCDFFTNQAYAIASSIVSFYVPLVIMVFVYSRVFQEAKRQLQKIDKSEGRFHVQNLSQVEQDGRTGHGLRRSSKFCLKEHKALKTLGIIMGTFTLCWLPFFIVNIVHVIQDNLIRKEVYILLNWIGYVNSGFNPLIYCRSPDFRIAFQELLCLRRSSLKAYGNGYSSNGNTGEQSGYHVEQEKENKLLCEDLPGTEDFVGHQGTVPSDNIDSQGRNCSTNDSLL

EC50 (Adrenergic β2)	β2 Int Act (Adrenergic β2)	IC50 [1, 4]	IC50 [2]	IC50 [3]	SMILES	IC50 [1]
0.631 nM	0.8	79.4 nM	398 nM	12600 nM	CC(CNCCCSCCNC[C@H](O)c1ccc(O)c2[nH]c(=O)sc12)c1ccccc1 (mixture of isomers) [Example 44, (+/−)-7-[(1R)-2-({2-[(3-{[2-(phenyl)propyl]amino}propyl)thio]ethyl}amino)-1-hydroxyethyl]-4-hydroxy-1,3-benzothiazol-2(3H)-one dihydrochloride]	
0.631 nM	0.8	79.4 nM	251 nM	1260 nM	C[C@@H](CNCCCSCCNC[C@H](O)c1ccc(O)c2[nH]c(=O)sc12)c1ccccc1 [Example 46, (R)-(+)-7-[(1R)-2-({2-[(3-{[2-(phenyl)propyl]amino}propyl)thio]ethyl}amino)-1-hydroxyethyl]-4-hydroxy-1,3-benzothiazol-2(3H)-one dihydrochloride]	
1 nM	1	63.1 nM	126 nM	1000 nM	C[C@@H](CNCCSCCCNC[C@H](O)c1ccc(O)c2[nH]c(=O)sc12)c1ccccc1 [Example 27, 4-Hydroxy-7-[(1R)-1-hydroxy-2-({3-[(2-{[(2R)-2-phenylpropyl]amino}ethyl)thio]propyl}amino)ethyl]-1,3-benzothiazol-2(3H)-one]	
1.26 nM	0.9	158 nM	1580 nM	3980 nM	C[C@H](CNCCCSCCNC[C@H](O)c1ccc(O)c2[nH]c(=O)sc12)c1ccccc1 [Example 48, (S)-(−)-7-[(1R)-2-({2-[(3-{[2-(phenyl)propyl]amino}propyl)thio]ethyl}amino)-1-hydroxyethyl]-4-hydroxy-1,3-benzothiazol-2(3H)-one dihydrochloride]	
	1.1		39.8 nM	1000 nM	O=c1[nH]c2c(O)ccc([C@@H](O)CNCCCSCCNCCc3cccc(Cl)c3)c2s1 [Example 33, 7-[(1R)-2-({3-[(2-{[2-(3-Chlorophenyl)ethyl]amino}ethyl)thio]propyl}amino)-1-hydroxyethyl]-4-hydroxy-1,3-benzothiazol-2(3H)-one]	
0.316 nM	0.9	25.1 nM	100 nM	3980 nM	C[C@H](CNCCSCCCNC[C@H](O)c1ccc(O)c2[nH]c(=O)sc12)c1ccccc1 [Example 29, 4-Hydroxy-7-[(1R)-1-hydroxy-2-({3-[(2-{[(2S)-2-phenylpropyl]amino}ethyl)thio]propyl}amino)ethyl]-1,3-benzothiazol-2(3H)-one]	
0.398 nM	0.8	79.4 nM	158 nM	631 nM	N[C@@H](COCCCSCCNC[C@H](O)c1ccc(O)c2[nH]c(=O)sc12)c1ccccc1 [Example 24, 7-((1R)-2-{[2-({3-[(2R)-2-Amino-2-phenylethoxy]propyl}thio)ethyl]amino}-1-hydroxyethyl)-4-hydroxy-1,3-benzothiazol-2(3H)-one]	

SMILES	EC50 (Adrenergic β2)	β2 Int Act (Adrenergic β2)	IC50 [1, 4]	IC50 [2]	IC50 [3]	IC50 [1]
O=c1[nH]c2c(O)ccc([C@@H](O)CNCCCSCCNCCc3ccccc3Cl)c2s1 [Example 31, 7-[(1R)-2-({3-[(2-{[2-(2-Chlorophenyl)ethyl]amino}ethyl)thio]propyl}amino)-1-hydroxyethyl]-4-hydroxy-1,3-benzothiazol-2(3H)-one]	0.398 nM	0.8	39.8 nM	12.6 nM	1580 nM	
O=c1[nH]c2c(O)ccc([C@@H](O)CNCCSCCCNCCc3cccc(Cl)c3Cl)c2s1 [Example 38, 7-[(1R)-2-({2-[(3-{[2-(2,3-Dichlorophenyl)ethyl]amino}propyl)thio]ethyl}amino)-1-hydroxyethyl]-4-hydroxy-1,3-benzothiazol-2(3H)-one dihydrochloride]	1.58 nM	0.9		158 nM	398 nM	
O=c1[nH]c2c(O)ccc([C@@H](O)CNCCS(=O)(=O)CCCNCCc3cccc(Cl)c3)c2s1 [Example 42, 7-[(1R)-2-({2-[(3-{[2-(3-Chlorophenyl)ethyl]amino}propyl)sulfonyl]ethyl}amino)-1-hydroxyethyl]-4-hydroxy-1,3-benzothiazol-2(3H)-one dihydrochloride]		1		126 nM	10000 nM	794 nM
